# Data taken from US20100069340A1, “PHARMACEUTICAL COMPOSITIONS OF AN SRC KINASE INHIBITOR AND AN AROMATASE INHIBITOR” (Wyeth, priority 2008, published 2010).
# Key:
# MCF7 = experiment: Cell proliferation assay (CellTiter Glo), MCF7; assay type: cell-based
# Method: (§1) Cell lines were obtained from ATCC. Estrogen was obtained from SIGMA, 4-hydroxytamoxifen was obtained from SIGMA, Bosutinib was used for these studies. Charcoal-stripped serum and phenol red-free medium was obtained from Invitrogen. CellTiter Glo was obtained from Promega.
# (§2) Cell cultures. Proliferation assays with cells in complete fetal calf serum were performed with medium containing phenol red. For all assays examining estrogen-dependence, cells were cultured in phenol red-free medium; DMEM/F12 (MCF7), RPMI1640 (MDA-MB-361, T47D) MEM (BT20, MDA-MB-231) McCoys5A modified (SKBR3), Leibowitz' L15 medium supplemented with 10 ng/mL insulin (MDA-MB-435 and MDA-MB-468) with 10% fetal bovine serum supplemented with glutamine and gentamicin. For proliferation assays, trypsinized cells were subjected to three cycles of centrifugation and resuspension in phenol red-free medium supplemented with charcoal stripped medium (5% final), glutamine and Pen/Strep. Cells were plated on day 0, with or without estrogen (10 nM final concentration). On day 1, 4-hydroxytamoxifen and SKI-606 or DMSO were added as a serial dilution. Cells were incubated for 7 days, after which CellTiter Glo (Promega) was added as recommended by the manufacturer. After mixing and two hours incubation on the bench, plates were read on an Envision reader. […] The 10 uM data point was dropped for these two lines since there was a clear plateau prior to the sharp drop in luminescence observed at 10 uM compound. The IC50 was calculated using a floating minima corresponding to the lowest luminescence value at 5 uM.
# (§3) Cell proliferation assays were performed in two formats; a three day proliferation assay in fully supplemented medium with phenol red, and a 7 day proliferation assay in phenol red free medium supplemented with charcoal-stripped medium. […] ER positive T47D cells were slightly more sensitive to SKI-606 in the presence of estrogen. BT20 cells were equally sensitive to SKI-606 in stripped serum medium, regardless of whether estrogen was present.
# (§4) Proliferation data for SKI-606 in various breast tumor lines in complete medium (10% FCS) and charcoal stripped serum with no phenol red (no E2, E2) with and without 10 nM estrogen. The complete medium data were obtained in 3-day assays, while stripped serum assays were extended for 7 days with one change of medium at day 5. The IC50 values for the BT20 line was calculated using the “plateau” cell number evident at 5 μM SKI-606.
# MDA-MB-361 = experiment: Cell proliferation assay (CellTiter Glo), MDA-MB-361; assay type: cell-based
# Method: as §1, §2, §3, §4
substance,measurement,setting,value
4-hydroxytamoxifen,estrogen-independent cell proliferation,"MCF7; MCF7, absence of estrogen",inhibits
same,effect on estrogen-stimulated proliferation,"MCF7; MCF7, presence of estrogen",inhibited in a dose-dependent manner
same,cell proliferation in the absence of estrogen,"MDA-MB-361; MDA-MB-361, absence of estrogen",little effect
same,effect on estrogen-stimulated proliferation,"MDA-MB-361; MDA-MB-361, presence of estrogen",inhibited in a dose-dependent manner
